Results taken from US20160297761A1, “NOVEL INHIBITORS OF GLUTAMINASE” (RHIZEN PHARMACEUTICALS SA, priority 2014, published 2016).
Read-outs that look alike come from different tables or passages of the source.

Key:
[1] = target: T1, L-glutaminase present in mice brain homogenate (Glutaminase(Brain)) (Mus musculus, UniProt D3Z7P3); assay: Glutaminase enzyme activity using glutaminase enzyme from mice brain/kidney homogenate (Nessler's reagent, ammonia); type: biochemical; conditions: for inhibition at 0.1 µM: read-out: Glutaminase(Brain) activity % inhibition 0.1 μM; for inhibition at 1 µM: read-out: Glutaminase(Brain) activity % inhibition @1 μM
T1 sequence (D3Z7P3 55-674): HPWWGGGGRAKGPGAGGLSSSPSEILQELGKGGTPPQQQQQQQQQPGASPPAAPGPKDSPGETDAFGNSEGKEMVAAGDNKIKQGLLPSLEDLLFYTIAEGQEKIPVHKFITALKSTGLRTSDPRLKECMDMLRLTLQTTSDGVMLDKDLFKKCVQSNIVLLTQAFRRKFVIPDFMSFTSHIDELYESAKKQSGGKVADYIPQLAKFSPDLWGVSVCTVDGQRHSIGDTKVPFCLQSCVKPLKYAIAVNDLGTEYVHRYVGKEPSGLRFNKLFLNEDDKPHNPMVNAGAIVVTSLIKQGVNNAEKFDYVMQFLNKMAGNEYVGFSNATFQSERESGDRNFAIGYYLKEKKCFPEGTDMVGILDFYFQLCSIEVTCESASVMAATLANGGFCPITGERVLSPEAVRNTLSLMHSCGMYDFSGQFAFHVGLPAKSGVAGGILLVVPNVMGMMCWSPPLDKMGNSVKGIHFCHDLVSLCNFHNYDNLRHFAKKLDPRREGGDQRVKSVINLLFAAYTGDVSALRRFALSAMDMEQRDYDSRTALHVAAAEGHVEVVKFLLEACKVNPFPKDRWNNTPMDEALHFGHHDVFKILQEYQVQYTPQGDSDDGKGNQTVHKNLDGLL
Procedure: Assay 3: Determination of Glutaminase Enzyme Activity Using Glutaminase
Enzyme from Mice Brain/Kidney
Step 1: Preparation of Tissue Homogenates: Male Balb/c mice were administered 0.28 M ammonium chloride in drinking water for 7 days. The animals were sacrificed and brain/kidney organs collected on dry ice. […] The tissue was homogenized and supernatants were stored at −80° C. until the enzyme assay was performed.
Aim: Compounds were assessed for their ability to inhibit the enzymatic activity of L-glutaminase present in mice brain/kidney homogenate.
Protocol: The assay was performed using a colorimetric method using Nessler's Reagent by quantifying the amount of ammonia formed as a by product during the enzymatic conversion of L-glutamine to glutamate. In the routine assay, 16 μl of tissue homogenate is added to 33 μl of Tris-Hcl phosphate buffer (pH 8) along with 1 μl of DMSO/test compound containing the desired final concentration and vortexed briefly. 50 μl of 20 mM L-glutamine Tris buffer is added to start the reaction and incubated for 15 minutes at 37° C. The ammonia formed is detected by adding 20 μl of reaction mixture to cold water in a 96 well plate followed by 20 μl of Nessler's reagent. The colour developed is measured at 450 nm. Data Analysis: Activity of the test compound is reported as % inhibition and the data is analyzed using Graphpad Prism (Graphpad software; San Diego Calif.) for IC50 determination.

cancer cell lines = assay: In vitro cell proliferation assay in cancer cell lines (MTT dye reduction, 72 h); type: cell-based; conditions: cancer cell line not named, 10% FBS media
Procedure: Assay 4: In Vitro Cell Proliferation Assay in Cancer Cell Lines
Growth inhibition assays were carried out using 10% FBS supplemented media. Cells were seeded at a concentration of 5000-20,000 cells/well in a 96-well plate. Test compounds at a concentration range from 0.01 to 10000 nM were added after 24 hours. Growth was assessed using the 3-[4,5-dimethylthiazol-2-yl]-2,5-diphenyltetrazolium bromide (MIT) dye reduction test at 0 h (prior to the addition of the test compound) and 72 hours after the addition of test compound. Absorbance was read on a Fluostar Optima (BMG Labtech, Germany) at a wave length of 450 nm. Data were analysed using GraphPad Prism and percent inhibition due to the test compound compared to the control was calculated accordingly.

| SMILES | melting point [°C] | inhibition at 0.1 µM ([1]; 0.1 μM, mice brain homogenate) [%] | inhibition at 1 µM ([1]; mice brain homogenate) [%] | GI50 (cancer cell lines) [µM] | inhibition at 0.1 µM [1] [%] |
| --- | --- | --- | --- | --- | --- |
| O=C(Cc1cccc(OC(F)(F)F)c1)Nc1nnc(CC2CCC(Cc3nnc(NC(=O)Cc4ccccn4)s3)CC2)s1 (stereo not drawn) [Example-105, 2-(Pyridin-2-yl)-N-(5-((4-((5-(2-(3-(trifluoromethoxy)phenyl)acetamido)-1,3,4-thiadiazol-2-yl)methyl)cyclohexyl)methyl)-1,3,4-thiadiazol-2-yl)acetamide] | 278 to 280 | < 25 | < 25 |  |  |
| CC(Cl)C(=O)Nc1nnc(CCCCc2ccc(NC(=O)Cc3cccc(OC(F)(F)F)c3)nc2)s1 (stereo not drawn) [Example-23, 2-Chloro-N-(5-(4-(6-(2-(3-(trifluoromethoxy)phenyl)acetamido)pyridin-3-yl)butyl)-1,3,4-thiadiazol-2-yl)propanamide] | 132 to 134 | < 25 | < 25 | 5 to 10 |  |
| O=C(Cc1cccc(OC(F)(F)F)c1)Nc1nnc(CC2CCC(Cc3nnc(NC(=O)Cc4cccc(OC(F)(F)F)c4)s3)CC2)s1 (stereo not drawn) [Example-104, N,N′-(5,5′-(cyclohexane-1,4-diylbis(methylene))bis(1,3,4-thiadiazole-5,2-diyl))bis(2-(3-(trifluoromethoxy)phenyl)acetamide)] | 240 to 244 | < 25 | < 25 |  |  |
| O=C(Cc1cccnc1)Nc1nnc(CCCCc2ccc(NC(=O)Cc3cccc(OC(F)(F)F)c3)c(F)c2)s1 [Example-42, N-(5-(4-(3-Fluoro-4-(2-(3-(trifluoromethoxy)phenyl)acetamido)phenyl)butyl)-1,3,4-thiadiazol-2-yl)-2-(pyridin-3-yl)acetamide] | 176 to 180 | < 25 | < 25 |  |  |
| Cc1ccc(F)c(C(=O)Nc2nnc(CCCCc3ccc(NC(=O)Cc4cccc(OC(F)(F)F)c4)nc3)s2)n1 [Example-37, 3-Fluoro-6-methyl-N-(5-(4-(6-(2-(3-(trifluoromethoxy)phenyl)acetamido)pyridin-3-yl)butyl)-1,3,4-thiadiazol-2-yl)picolinamide] | 130 to 133 | < 25 | < 25 |  |  |
| O=C(Cc1ccccn1)Nc1nnc(CCCCc2ccc(NC(=O)Cc3cccc(OC(F)(F)F)c3)c(F)c2)s1 [Example-41, N-(5-(4-(3-Fluoro-4-(2-(3-(trifluoromethoxy)phenyl)acetamido)phenyl)butyl)-1,3,4-thiadiazol-2-yl)-2-(pyridin-2-yl)acetamide] | 164 to 168 | < 25 | < 25 |  |  |
| O=C(Cc1cccc(OC(F)(F)F)c1)Nc1ccc(CCCCc2nnc(NC(=O)Cn3cccn3)s2)cn1 [Example-27, N-(5-(4-(5-(2-(1H-pyrazol-1-yl)acetamido)-1,3,4-thiadiazol-2-yl)butyl)pyridin-2-yl)-2-(3-(trifluoromethoxy)phenyl)acetamide] | 174 to 178 | < 25 | 50 to 75 | 5 to 10 |  |
| O=C(Cc1cccnc1)Nc1nnc(CC2CCC(Cc3nnc(NC(=O)Cc4cccnc4)s3)CC2)s1 (stereo not drawn) [Example-103, N,N′-(5,5′-(cyclohexane-1,4-diylbis(methylene))bis(1,3,4-thiadiazole-5,2-diyl))bis(2-(pyridin-3-yl)acetamide)] | 268 to 270 | 25 to 50 | 25 to 50 |  |  |
| O=C(Cc1ccncc1)Nc1ccc(CCCCc2nnc(NC(=O)Cc3cccc(OC(F)(F)F)c3)s2)cn1 [Example-22, 2-(Pyridin-4-yl)-N-(5-(4-(5-(2-(3-(trifluoromethoxy)phenyl)acetamido)-1,3,4-thiadiazol-2-yl)butyl)pyridin-2-yl)acetamide] | 135 to 137 | < 25 | 50 to 75 | 1 to 5 |  |
| O=C(Cc1cccnc1)Nc1nnc(C2CCC(c3nnc(NC(=O)Cc4cccnc4)s3)CC2)s1 (stereo not drawn) [Example-102, N,N′-(5,5′-(cyclohexane-1,4-diyl)bis(1,3,4-thiadiazole-5,2-diyl))bis(2-(pyridin-3-yl)acetamide)] | 180 to 182 |  |  |  | < 25 |
| O=C(Cc1ccccn1)Nc1ccc(CCCCc2nnc(NC(=O)Cc3cccc(OC(F)(F)F)c3)s2)cn1 [Example-8, 2-(Pyridin-2-yl)-N-(5-(4-(5-(2-(3-(trifluoromethoxy)phenyl)acetamido)-1,3,4-thiadiazol-2-yl)butyl)pyridin-2-yl)acetamide] | 176 to 178 | 25 to 50 | 50 to 75 | < 0.1 |  |
| O=C(Cc1cccc(OC(F)(F)F)c1)Nc1ccc(CCCCc2nnc(NC(=O)Cc3cccnc3)s2)cn1 [Example-10, 2-(Pyridin-3-yl)-N-(5-(4-(6-(2-(3-(trifluoromethoxy)phenyl)acetamido)pyridin-3-yl)butyl)-1,3,4-thiadiazol-2-yl)acetamide] | 176 to 178 | 75 to 100 | 75 to 100 |  |  |
| Cc1nc(NC(=O)Cc2cccc(OC(F)(F)F)c2)ccc1CCCCc1nnc(NC(=O)Cc2ccccn2)s1 [Example-9, N-(6-Methyl-5-(4-(5-(2-(pyridin-2-yl)acetamido)-1,3,4-thiadiazol-2-yl)butyl)pyridin-2-yl)-2-(3-(trifluoromethoxy)phenyl)acetamide] | 96 to 101 | < 25 | < 25 |  |  |
| O=C(Cc1cccc(OC(F)(F)F)c1)Nc1ccc(CCCCc2ccc(NC(=O)Cc3cccc(OC(F)(F)F)c3)nc2)cn1 [Example-40, N,N′-(5,5′-(Butane-1,4-diyl)bis(pyridine-5,2-diyl))bis(2-(3-(trifluoromethoxy)phenyl)acetamide)] | 153 to 155 | < 25 | < 25 |  |  |
